The assay has as its target USP30 (Homo sapiens (Human), UniProt Q70CQ3). Briefly: USP30 Biochemical IC50 Assay. The following applies: fluorescence polarisation, TAMRA labelled peptide linked to ubiquitin; enzyme and compound incubated 30 min; read after 2 h at room temperature; read-out: IC50 range. The method, then:
USP30 Biochemical IC50 Assay
Dilution plates were prepared at 21 times the final concentration (2100 μM for a final concentration of 100 μM) in 50% DMSO in a 96-well polypropylene V-bottom plate (Greiner #651201). A typical 8-point dilution series would be 100, 30, 10, 3, 1, 0.3, 0.1, 0.03 μM final. Reactions were performed in duplicate in black 384 well plates (small volume, Greiner 784076) in a final reaction volume of 21 μl. Either 1 μl of 50% DMSO or diluted compound was added to the plate. USP30 was diluted in reaction buffer (40 mM Tris, pH 7.5, 0.005% Tween 20, 0.5 mg/ml BSA, 5 mM beta-mercaptoethanol) to the equivalent of 0.05 μl/well and 10 μl of diluted USP30 was added to the compound. Enzyme and compound were incubated for 30 min at room temp. Reactions were initiated by the addition of 50 nM of TAMRA labelled peptide linked to ubiquitin via an iso-peptide bond as fluorescence polarisation substrate. Reactions were read immediately after addition of substrate and following a 2 h incubation at room temperature. Readings were performed on a Pherastar Plus (BMG Labtech). Excitation 540 nm; Emission 590 nm.

Chain of USP30 (Q70CQ3 57-517): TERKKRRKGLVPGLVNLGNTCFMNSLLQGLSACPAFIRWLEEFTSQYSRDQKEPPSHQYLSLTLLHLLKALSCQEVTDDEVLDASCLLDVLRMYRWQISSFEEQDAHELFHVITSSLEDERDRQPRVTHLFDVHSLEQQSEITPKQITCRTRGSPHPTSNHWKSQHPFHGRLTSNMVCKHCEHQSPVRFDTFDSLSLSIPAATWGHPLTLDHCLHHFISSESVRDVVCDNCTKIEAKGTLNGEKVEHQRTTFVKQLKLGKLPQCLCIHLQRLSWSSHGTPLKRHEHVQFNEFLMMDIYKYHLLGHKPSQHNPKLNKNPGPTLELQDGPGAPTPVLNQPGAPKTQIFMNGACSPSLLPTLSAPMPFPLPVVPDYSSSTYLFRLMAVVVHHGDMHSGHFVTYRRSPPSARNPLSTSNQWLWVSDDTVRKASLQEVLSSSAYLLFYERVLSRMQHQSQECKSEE

The term IC50 denotes the concentration needed to halve the response being measured. For the compound `N#CN1C[C@H]2CCN(c3nc4ccc(OC(F)(F)F)cc4[nH]3)[C@H]2C1` [Example 15, (3aR,6aR)-1-(6-(Trifluoromethoxy)-1H-benzo[d]imidazol-2-yl)hexahydropyrrolo[3,4-b]pyrrole-5(1H)-carbonitrile], the IC50 lay in the range of 10 to 100 nM. In the case of `N#Cc1cccc(-c2cnc(N3CCO[C@@H]4CN(C#N)C[C@@H]43)cn2)c1` (racemic) [Example 25, rac-(4aR,7aS)-4-(5-(3-Cyanophenyl)pyrazin-2-yl)hexahydropyrrolo[3,4-b][1,4]oxazine-6(2H)-carbonitrile], the half-inhibitory concentration (IC50) was 1 to 10 nM. Under `COc1ccc2nc(N3CC[C@@H]4CN(C#N)C[C@@H]43)[nH]c2c1` [Example 17, (3aR,6aR)-1-(6-Methoxy-1H-benzo[d]imidazol-2-yl)hexahydropyrrolo[3,4-b]pyrrole-5(1H)-carbonitrile] stands 100 to 1000 nM; under `N#CN1C[C@H]2OCCN(c3ccc(-c4ccccc4)nn3)[C@H]2C1` (relative stereo) [Example 2, cis-4-(6-Phenylpyridazin-3-yl)hexahydropyrrolo[3,4-b][1,4]oxazine-6(2H)-carbonitrile], 100 to 1000 nM. With `N#Cc1cccc(-c2cnc(N3CCO[C@@H]4CN(C#N)C[C@@H]43)nc2)c1` (racemic) [Example 24, rac-(4aR,7aS)-4-(5-(3-Cyanophenyl)pyrimidin-2-yl)hexahydropyrrolo[3,4-b][1,4]oxazine-6(2H)-carbonitrile], the IC50 fell in the range of 1 to 10 nM.

In the case of `N#Cc1cccc(-c2cccnc2N2CCO[C@H]3CN(C#N)C[C@H]32)c1` (racemic) [Example 23, rac-(4aR,7aS)-4-(5-(3-Cyanophenyl)pyridin-6-yl)hexahydropyrrolo[3,4-b][1,4]oxazine-6(2H)-carbonitrile], the IC50 lay within 1 to 10 nM. Consider `N#CN1C[C@@H]2OCCN(c3ncc(-c4ccccc4)s3)[C@H]2C1` (relative stereo) [Example 10, trans-4-(5-Phenylthiazol-2-yl)hexahydropyrrolo[3,4-b][1,4]oxazine-6(2H)-carbonitrile], for which the half-maximal inhibitory concentration (IC50) fell in the range of 100 to 1000 nM. In the case of `N#Cc1cc(-c2ccc(N3CCO[C@H]4CN(C#N)C[C@H]43)nc2)ccn1` (single isomer, unassigned) [Example 19, cis-4-(2′-Cyano-[3,4′-bipyridin]-6-yl)hexahydropyrrolo[3,4-b][1,4]oxazine-6(2H)-carbonitrile], the IC50 was in the range of 1 to 10 nM. The same measure for `CN(c1ccc(-c2ccccc2)cn1)C1CCN(C#N)C1` (centres unmarked) [Example 14, 3-(Methyl(5-phenylpyridin-2-yl)amino)pyrrolidine-1-carbonitrile]: 1000 to 10000 nM; for `N#CN1C[C@@H]2OCCN(c3ccc(-c4ccccc4)cn3)[C@@H]2C1` (relative stereo) [Example 5, cis-4-(5-Phenylpyridin-2-yl)hexahydropyrrolo[3,4-b][1,4]oxazine-6(2H)-carbonitrile]: 100 to 1000 nM. Under `N#Cc1ccc2nc(N3CC[C@@H]4CN(C#N)C[C@@H]43)[nH]c2c1` [Example 16, 2-((3aR,6aR)-5-Cyanohexahydropyrrolo[3,4-b]pyrrol-1(2H)-yl)-1H-benzo[d]imidazole-6-carbonitrile] stands 100 to 1000 nM; under `N#CN1C[C@@H]2OCCN(c3nc4ccc(F)cc4s3)[C@@H]2C1` (relative stereo) [Example 3, cis-4-(6-Fluorobenzo[d]thiazol-2-yl)hexahydropyrrolo[3,4-b][1,4]oxazine-6(2H)-carbonitrile], 1000 to 10000 nM; under `N#Cc1cc(-c2ccc(N3CCO[C@H]4CN(C#N)C[C@H]43)nn2)ccn1` (single isomer, unassigned) [Example 21, cis-4-(6-(2-Cyanopyridin-4-yl)pyridazin-3-yl)hexahydropyrrolo[3,4-b][1,4]oxazine-6(2H)-carbonitrile], 100 to 1000 nM. Under `N#Cc1ccnc(-c2ccc(N3CCO[C@@H]4CN(C#N)C[C@@H]43)nc2)c1` (racemic) [Example 26, rac-(4aR,7aS)-4-(4-Cyano-[2,3′-bipyridin]-6′-yl)hexahydropyrrolo[3,4-b][1,4]oxazine-6(2H)-carbonitrile] stands 1 to 10 nM.

For the compound `N#Cc1cc(-c2ccc(N3CCO[C@H]4CN(C#N)C[C@H]43)nn2)ccn1` (single isomer, unassigned) [Example 22, cis-4-(6-(2-Cyanopyridin-4-yl)pyridazin-3-yl)hexahydropyrrolo[3,4-b][1,4]oxazine-6(2H)-carbonitrile], the IC50 was in the range of 10 to 100 nM. The same measure for `N#CN1C[C@@H]2OCCN(c3nccc(-c4ccccc4)n3)[C@@H]2C1` (relative stereo) [Example 7, cis-4-(4-Phenylpyrimidin-2-yl)hexahydropyrrolo[3,4-b][1,4]oxazine-6(2H)-carbonitrile]: 100 to 1000 nM; for `CN(c1nc2ccc(C(F)(F)F)cc2[nH]1)[C@@H]1CCN(C#N)C1` [Example 18, (R)-3-(Methyl(6-(trifluoromethyl)-1H-benzo[d]imidazol-2-yl)amino)pyrrolidine-1-carbonitrile]: 100 to 1000 nM; for `N#CN1CC2CCN(c3ccccc3)C2C1` (centres unmarked) [Example 1, 1-Phenylhexahydropyrrolo[3,4-b]pyrrole-5(1H)-carbonitrile]: 1000 to 10000 nM. The same measure for `CN(c1ncc(-c2ccccc2)s1)C1CCN(C#N)C1` (centres unmarked) [Example 13, 3-(Methyl(5-phenylthiazol-2-yl)amino)pyrrolidine-1-carbonitrile]: 1000 to 10000 nM. On to `N#CN1C[C@H]2CCN(c3ncc(-c4ccccc4)s3)[C@H]2C1` (relative stereo) [Example 8, cis-1-(5-Phenylthiazol-2-yl)hexahydropyrrolo[3,4-b]pyrrole-5(1H)-carbonitrile], for which the IC50 was in the range of 100 to 1000 nM. Under `N#CN1C[C@@H]2OCCN(c3cc(-c4ccccc4)ccn3)[C@@H]2C1` (relative stereo) [Example 4, cis-4-(4-Phenylpyridin-2-yl)hexahydropyrrolo[3,4-b][1,4]oxazine-6(2H)-carbonitrile] stands 1000 to 10000 nM. With `N#Cc1cc(-c2ccc(N3CCO[C@H]4CN(C#N)C[C@H]43)nc2)ccn1` (single isomer, unassigned) [Example 20, cis-4-(2′-Cyano-[3,4′-bipyridin]-6-yl)hexahydropyrrolo[3,4-b][1,4]oxazine-6(2H)-carbonitrile], the 50% inhibitory concentration (IC50) lay within 10 to 100 nM. The same measure for `N#CN1C[C@H]2OCCN(c3ncc(-c4ccccc4)s3)[C@H]2C1` (relative stereo) [Example 9, cis-4-(5-Phenylthiazol-2-yl)hexahydropyrrolo[3,4-b][1,4]oxazine-6(2H)-carbonitrile]: 100 to 1000 nM; for `N#CN1CC2CCCN(c3ncc(-c4ccccc4)s3)C2C1` (centres unmarked) [Example 11, 1-(5-Phenylthiazol-2-yl)octahydro-6H-pyrrolo[3,4-b]pyridine-6-carbonitrile]: 1000 to 10000 nM.

Take `N#CN1C[C@@H]2OCCN(c3cccc(-c4ccccc4)n3)[C@@H]2C1` (relative stereo) [Example 6, cis-4-(6-Phenylpyridin-2-yl)hexahydropyrrolo[3,4-b][1,4]oxazine-6(2H)-carbonitrile]: the concentration for half-maximal inhibition (IC50) was in the range of 100 to 1000 nM.

For the compound `N#Cc1cccc(-c2ccc(N3CCO[C@@H]4CN(C#N)C[C@@H]43)nc2)n1` (racemic) [Example 27], the concentration for half-maximal inhibition (IC50) was 10 to 100 nM.
